Assay in all cases: inhibition of tumour cell growth, NCI panel, 48 h
In test [1] the test system is NCI-H522 lung.
The subject of test [2] is NCI-H226 lung.
In test [3] the test system is NCI/ADR-RES ovarian.
The subject of test [4] is SK-MEL-2 melanoma.

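Grown in 96-well plates, cells were treated for 48 hours with each compound at five concentrations. Insufficient inhibition: endpoint recorded as highest concentration tested. GI50 is the concentration that inhibits growth by half. TGI: total growth inhibition.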

In the case of `CCOc1ncn(-c2ccc(NC(=S)Nc3cccc(O)c3)cc2)n1`, the TGI in test [1] was > 100 µM.
Turning to `COc1ccc(C(=O)C2CC3(CCC2(O)c2ccc(OC)cc2)CC(=O)Nc2ccccc2C3=O)cc1` (stereo not given), the TGI in test [2], in test [3] and in test [4] was > 100 µM throughout.
`CO/C(=N\N=C(/C)C(F)(F)F)c1ccncc1`: the TGI in test [1], in test [2], in test [3] and in test [4] was > 100 µM in each case.
In the case of `COC[C@H]1C(=O)NCC(=O)N2NCCC[C@H]2C(=O)N(O)[C@H](C)C(=O)O[C@@H](C(C)C)[C@H](NC(=O)[C@](C)(O)[C@]2(O)CC[C@@H](CC(C)C)[C@H](C)O2)C(=O)N2NCCC[C@@H]2C(=O)N1O`, in test [1], the GI50 is 0.0171 µM and the TGI came out at 0.0377 µM. Further, in test [4], the GI50 is 0.0152 µM and the TGI amounted to 0.0304 µM.
For `ClCCN(CCCl)Cc1ccc(Nc2ccnc3cc(Cl)ccc23)cc1`, in test [2], the GI50 was 1.41 µM and the TGI amounted to 3.78 µM. For the same compound, in test [3], the GI50 is 2.17 µM and the TGI came to 7.36 µM.
For the compound `COc1ccc2c(O)c3[n+](cc2c1OC)CCc1cc2c(cc1-3)OCO2`, the TGI was 46 µM in test [1], > 100 µM in test [2], > 100 µM in test [3] and > 100 µM in test [4].
